Article PMC3639963, “A New Class of Small Molecule Inhibitor of BMP Signaling” (PLoS ONE, 2013)

Columns and labels:
Assay in all cases: Nanosyn kinase profiling
Format in all cases: biochemical
Conditions in all cases: read-out: Percentage inhibition; for inhibition at 0.1 µM: 0.1 µM inhibitor; for inhibition at 1 µM: 1 µM inhibitor
CAMK2δ = biological target: T1, CAMK2δ (Homo sapiens, UniProt Q13557)
T1 construct: purchased Nanosyn (enzymatic panel); SGC in-house recombinant human kinases (DSF panel); Invitrogen (ALK1-6)
Outline: (§1)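 Percent inhibition of each kinase was measured with the inhibitor at 0.1 µM and at 1 µM, as part of a 200-kinase human selectivity panel.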

JAK3 = biological target: T2, JAK3 (Homo sapiens, UniProt P52333)
T2 construct: purchased Nanosyn (enzymatic panel); SGC in-house recombinant human kinases (DSF panel); Invitrogen (ALK1-6)
T2 sequence (P52333 1-1124): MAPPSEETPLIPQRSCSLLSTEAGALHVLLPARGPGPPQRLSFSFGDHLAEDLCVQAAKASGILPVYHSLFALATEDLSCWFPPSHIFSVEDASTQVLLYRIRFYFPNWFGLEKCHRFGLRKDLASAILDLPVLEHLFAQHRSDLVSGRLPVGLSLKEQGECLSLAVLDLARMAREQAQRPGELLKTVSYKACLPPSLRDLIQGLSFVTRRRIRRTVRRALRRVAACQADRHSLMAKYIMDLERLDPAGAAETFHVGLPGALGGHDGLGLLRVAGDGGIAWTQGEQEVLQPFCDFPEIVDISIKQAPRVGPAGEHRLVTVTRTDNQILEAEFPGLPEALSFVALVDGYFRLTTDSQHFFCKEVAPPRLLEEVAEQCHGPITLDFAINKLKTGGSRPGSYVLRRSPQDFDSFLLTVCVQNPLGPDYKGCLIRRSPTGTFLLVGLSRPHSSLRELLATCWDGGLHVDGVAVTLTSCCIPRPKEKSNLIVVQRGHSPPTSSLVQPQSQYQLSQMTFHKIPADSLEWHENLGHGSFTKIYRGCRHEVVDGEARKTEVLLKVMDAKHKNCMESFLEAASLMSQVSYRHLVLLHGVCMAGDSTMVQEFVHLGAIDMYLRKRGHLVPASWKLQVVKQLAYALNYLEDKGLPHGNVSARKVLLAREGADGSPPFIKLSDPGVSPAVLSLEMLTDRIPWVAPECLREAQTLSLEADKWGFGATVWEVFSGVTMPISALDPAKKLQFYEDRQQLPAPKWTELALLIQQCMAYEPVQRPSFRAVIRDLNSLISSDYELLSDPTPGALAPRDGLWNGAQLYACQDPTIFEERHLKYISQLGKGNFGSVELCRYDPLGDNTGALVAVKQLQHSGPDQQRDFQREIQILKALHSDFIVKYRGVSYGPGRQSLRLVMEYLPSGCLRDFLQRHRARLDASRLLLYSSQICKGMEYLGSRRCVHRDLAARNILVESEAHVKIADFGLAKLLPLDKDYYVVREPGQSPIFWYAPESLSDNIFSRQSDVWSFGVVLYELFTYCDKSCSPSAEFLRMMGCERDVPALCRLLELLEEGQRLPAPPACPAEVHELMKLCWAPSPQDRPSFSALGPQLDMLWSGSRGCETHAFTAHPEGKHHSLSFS
Outline: as §1

MARK1 = biological target: T3, MARK1 (Homo sapiens, UniProt Q9P0L2)
T3 construct: purchased Nanosyn (enzymatic panel); SGC in-house recombinant human kinases (DSF panel); Invitrogen (ALK1-6)
Outline: as §1

NEK2 = biological target: T4, NEK2 (Homo sapiens, UniProt P51955)
T4 construct: purchased Nanosyn (enzymatic panel); SGC in-house recombinant human kinases (DSF panel); Invitrogen (ALK1-6)
T4 sequence (P51955 1-445): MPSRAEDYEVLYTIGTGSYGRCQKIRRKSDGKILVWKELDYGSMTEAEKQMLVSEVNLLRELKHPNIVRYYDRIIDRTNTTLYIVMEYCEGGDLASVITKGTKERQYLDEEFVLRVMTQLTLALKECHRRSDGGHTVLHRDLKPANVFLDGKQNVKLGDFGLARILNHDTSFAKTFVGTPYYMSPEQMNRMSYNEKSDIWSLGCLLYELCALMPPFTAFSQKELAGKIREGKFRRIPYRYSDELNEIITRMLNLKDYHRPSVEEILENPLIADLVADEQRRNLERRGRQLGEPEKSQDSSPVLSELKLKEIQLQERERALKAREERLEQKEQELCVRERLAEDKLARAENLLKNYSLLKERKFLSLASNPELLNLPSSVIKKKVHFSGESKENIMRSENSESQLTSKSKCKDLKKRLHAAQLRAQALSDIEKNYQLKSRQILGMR
Outline: as §1

PRKD1 = biological target: T5, PRKD1 (Homo sapiens, UniProt Q15139)
T5 construct: purchased Nanosyn (enzymatic panel); SGC in-house recombinant human kinases (DSF panel); Invitrogen (ALK1-6)
T5 sequence (Q15139 1-912): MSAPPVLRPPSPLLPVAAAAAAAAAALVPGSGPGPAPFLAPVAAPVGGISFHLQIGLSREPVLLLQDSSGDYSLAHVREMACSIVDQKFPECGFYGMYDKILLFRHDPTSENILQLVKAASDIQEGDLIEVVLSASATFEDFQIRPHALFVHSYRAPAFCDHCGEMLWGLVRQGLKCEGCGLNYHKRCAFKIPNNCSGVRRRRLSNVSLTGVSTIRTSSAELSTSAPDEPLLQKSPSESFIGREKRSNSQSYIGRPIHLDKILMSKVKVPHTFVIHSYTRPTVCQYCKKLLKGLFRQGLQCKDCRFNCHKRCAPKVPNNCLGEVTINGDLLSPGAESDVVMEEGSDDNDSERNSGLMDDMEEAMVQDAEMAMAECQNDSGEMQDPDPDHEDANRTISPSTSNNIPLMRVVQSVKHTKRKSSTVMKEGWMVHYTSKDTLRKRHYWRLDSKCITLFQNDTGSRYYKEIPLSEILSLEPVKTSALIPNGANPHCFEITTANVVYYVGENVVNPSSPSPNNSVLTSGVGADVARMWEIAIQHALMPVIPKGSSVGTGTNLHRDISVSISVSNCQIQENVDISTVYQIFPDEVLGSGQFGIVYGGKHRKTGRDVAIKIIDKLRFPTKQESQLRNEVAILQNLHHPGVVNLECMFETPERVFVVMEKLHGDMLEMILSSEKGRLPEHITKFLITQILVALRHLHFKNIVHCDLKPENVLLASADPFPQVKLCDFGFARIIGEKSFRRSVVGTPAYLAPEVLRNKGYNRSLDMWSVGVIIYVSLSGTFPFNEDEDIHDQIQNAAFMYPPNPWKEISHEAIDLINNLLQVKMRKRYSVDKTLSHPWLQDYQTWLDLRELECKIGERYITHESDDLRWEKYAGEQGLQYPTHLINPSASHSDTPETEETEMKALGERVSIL
Outline: as §1

T3 sequence (Q9P0L2 whole entry): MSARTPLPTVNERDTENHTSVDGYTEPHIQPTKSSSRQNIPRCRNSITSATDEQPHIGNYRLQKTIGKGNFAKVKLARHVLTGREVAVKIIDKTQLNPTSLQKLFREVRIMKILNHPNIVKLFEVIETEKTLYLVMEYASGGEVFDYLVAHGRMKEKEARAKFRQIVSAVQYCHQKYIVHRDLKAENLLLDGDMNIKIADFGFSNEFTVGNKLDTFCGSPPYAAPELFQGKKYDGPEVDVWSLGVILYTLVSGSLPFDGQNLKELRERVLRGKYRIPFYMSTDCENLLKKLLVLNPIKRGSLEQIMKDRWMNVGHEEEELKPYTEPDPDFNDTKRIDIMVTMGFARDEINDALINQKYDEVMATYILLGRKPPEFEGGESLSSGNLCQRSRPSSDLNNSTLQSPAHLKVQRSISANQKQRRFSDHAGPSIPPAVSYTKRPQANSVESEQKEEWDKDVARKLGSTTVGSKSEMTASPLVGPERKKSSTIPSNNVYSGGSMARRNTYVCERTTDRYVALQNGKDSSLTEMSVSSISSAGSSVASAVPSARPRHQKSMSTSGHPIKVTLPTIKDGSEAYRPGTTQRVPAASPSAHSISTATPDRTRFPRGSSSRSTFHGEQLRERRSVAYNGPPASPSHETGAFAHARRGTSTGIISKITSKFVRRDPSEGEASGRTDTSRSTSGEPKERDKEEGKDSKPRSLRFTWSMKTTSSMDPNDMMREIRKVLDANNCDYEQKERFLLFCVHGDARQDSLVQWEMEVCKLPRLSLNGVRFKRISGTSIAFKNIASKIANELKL
T1 sequence (Q13557 whole entry): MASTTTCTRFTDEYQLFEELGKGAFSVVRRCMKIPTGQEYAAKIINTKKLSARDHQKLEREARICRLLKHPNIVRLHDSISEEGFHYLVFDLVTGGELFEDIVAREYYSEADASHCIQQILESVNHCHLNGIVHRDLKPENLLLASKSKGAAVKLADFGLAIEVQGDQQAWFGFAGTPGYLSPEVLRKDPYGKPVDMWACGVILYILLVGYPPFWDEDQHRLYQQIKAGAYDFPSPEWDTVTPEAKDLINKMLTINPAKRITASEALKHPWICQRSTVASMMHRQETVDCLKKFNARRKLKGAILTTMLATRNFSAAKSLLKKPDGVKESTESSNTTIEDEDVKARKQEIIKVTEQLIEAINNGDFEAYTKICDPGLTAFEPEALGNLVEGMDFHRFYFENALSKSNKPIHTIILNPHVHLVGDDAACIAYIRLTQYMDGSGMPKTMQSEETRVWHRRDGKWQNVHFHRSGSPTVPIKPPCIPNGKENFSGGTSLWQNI

Compound	inhibition at 0.1 µM (CAMK2δ) [%]	inhibition at 1 µM (CAMK2δ) [%]	inhibition at 0.1 µM (JAK3) [%]	inhibition at 1 µM (JAK3) [%]	inhibition at 0.1 µM (MARK1) [%]	inhibition at 1 µM (MARK1) [%]	inhibition at 0.1 µM (NEK2) [%]	inhibition at 1 µM (NEK2) [%]	inhibition at 0.1 µM (PRKD1) [%]	inhibition at 1 µM (PRKD1) [%]
COc1cc(-c2cc(-c3cccc(O)c3)cnc2N)cc(OC)c1OC [K02288, 3-[6-amino-5-(3,4,5-trimethoxy-phenyl)-pyridin-3-yl]-phenol]	-1	1.4	5.6	2.3	1.3	4.5	-2	-2	0	6.1
c1ccc2c(-c3cnn4cc(-c5ccc(N6CCNCC6)cc5)cnc34)ccnc2c1 [LDN-193189]	3.1	8.7	0	0.1	13	62	2.8	1.2	4.6	15
